Source: ChEMBL document CHEMBL1201862, “PubChem BioAssay data set” (2004)
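Values below derive from 48-hour exposures of cells grown in 96-well plates, with endpoints linearly interpolated between the two concentrations bracketing the appropriate inhibition level. GI50 marks 50% less growth.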 Activity calls are given as the source filed them. Rule as the data show it: active = GI50 up to about 1.1 µM and inactive = higher.

Tests used:
Assay in all cases: DTP human tumour cell line panel, 48 h
[1] = test system: 786-0
[2] = test system: A498
[3] = test system: HL-60
[4] = test system: HOP-92
[5] = test system: IGROV-1
[6] = test system: K562
[7] = test system: LOX IMVI
[8] = test system: NCI-H23
[9] = test system: OVCAR-3
[10] = test system: SF-295
[11] = test system: SF-539
[12] = test system: SK-MEL-28
[13] = test system: SNB-19
[14] = test system: SR
[15] = test system: UACC-62
[16] = test system: COLO 205
[17] = test system: MCF7
[18] = test system: RPMI-8226
[19] = test system: SN12C
[20] = test system: DU-145

| Structure (SMILES) | GI50 [1] | GI50 [2] | GI50 [3] | GI50 [4] | GI50 [5] | GI50 [6] | GI50 [7] | GI50 [8] | GI50 [9] | GI50 [10] | GI50 [11] | GI50 [12] | GI50 [13] | GI50 [14] | GI50 [15] | GI50 [16] | GI50 [17] | GI50 [18] | GI50 [19] | GI50 [20] |
| --- | --- | --- | --- | --- | --- | --- | --- | --- | --- | --- | --- | --- | --- | --- | --- | --- | --- | --- | --- | --- |
| Clc1ccc(OCc2nnc3n2N=C(c2ccccc2)CS3)c(Cl)c1 | 9.48 µM (inactive) | 2.24 µM (inactive) | 3.7 µM (inactive) | 4.21 µM (inactive) | 6.4 µM (inactive) | 4.25 µM (inactive) | 1.64 µM (inactive) | 5.66 µM (inactive) | > 10 µM (inactive) | 4.35 µM (inactive) | 12.6 µM (inactive) | > 100 µM (inactive) | 3.78 µM (inactive) | 4.73 µM (inactive) | 6.58 µM (inactive) | – | – | – | – | – |
| Cc1cc(C(F)(F)F)cc(-n2nc(NS(=O)(=O)c3cc(C)c(Cl)cc3S)nc2N)n1 | 44.6 µM (inactive) | 26 µM (inactive) | 32.8 µM (inactive) | 32.7 µM (inactive) | 36.6 µM (inactive) | 39.7 µM (inactive) | 18.7 µM (inactive) | – | 51.3 µM (inactive) | 8.79 µM (inactive) | > 10 µM (inactive) | 55.3 µM (inactive) | 26.8 µM (inactive) | 23.4 µM (inactive) | 29.5 µM (inactive) | > 100 µM (inactive) | 45.1 µM (inactive) | 65.8 µM (inactive) | 35.5 µM (inactive) | – |
| COc1ccc(C2c3cc4c(cc3OC(N3CCCCC3)C2C)OCO4)cc1 (stereo not drawn) | 80.2 µM (inactive) | – | – | – | > 100 µM (inactive) | > 100 µM (inactive) | > 100 µM (inactive) | 58.5 µM (inactive) | > 100 µM (inactive) | 54.6 µM (inactive) | > 100 µM (inactive) | > 100 µM (inactive) | > 100 µM (inactive) | > 100 µM (inactive) | > 100 µM (inactive) | > 100 µM (inactive) | > 100 µM (inactive) | > 100 µM (inactive) | > 100 µM (inactive) | > 100 µM (inactive) |
| CC(=O)C1=NN(c2ccccc2)C2(S1)SC(c1ccccc1)(c1ccccc1)c1ccccc12 (stereo not drawn) | 34.5 µM (inactive) | 89.7 µM (inactive) | 19.9 µM (inactive) | 10.4 µM (inactive) | 33.1 µM (inactive) | 32.4 µM (inactive) | 61.5 µM (inactive) | 27.2 µM (inactive) | 51.3 µM (inactive) | 26.9 µM (inactive) | 60.8 µM (inactive) | > 100 µM (inactive) | 62.2 µM (inactive) | 20.4 µM (inactive) | 17.9 µM (inactive) | > 100 µM (inactive) | – | 44.1 µM (inactive) | > 100 µM (inactive) | – |
| COP(=O)(OC)C(C)(C)NC(=O)NC(F)(F)F | > 100 µM (inactive) | – | > 100 µM (inactive) | – | > 100 µM (inactive) | > 100 µM (inactive) | > 100 µM (inactive) | > 100 µM (inactive) | > 100 µM (inactive) | > 100 µM (inactive) | > 100 µM (inactive) | > 100 µM (inactive) | 70.1 µM (inactive) | > 100 µM (inactive) | > 100 µM (inactive) | > 100 µM (inactive) | > 100 µM (inactive) | > 100 µM (inactive) | > 100 µM (inactive) | > 100 µM (inactive) |
| CCCP1(=O)C=C(C)C(=C(Cl)Cl)C(C)=C1 (stereo not drawn) | 44.5 µM (inactive) | 68.9 µM (inactive) | 21.6 µM (inactive) | 24.2 µM (inactive) | 70 µM (inactive) | 30.8 µM (inactive) | – | 34.7 µM (inactive) | 84.9 µM (inactive) | 35.2 µM (inactive) | 37.3 µM (inactive) | 44.1 µM (inactive) | – | 24.5 µM (inactive) | 44 µM (inactive) | 36.1 µM (inactive) | – | – | 24.6 µM (inactive) | – |
| CCCCCCCCCCCC(=O)OCCOCCOCCOCCOCCOCc1ccccc1 | > 100 µM (inactive) | > 100 µM (inactive) | 34.4 µM (inactive) | > 100 µM (inactive) | > 100 µM (inactive) | > 100 µM (inactive) | > 100 µM (inactive) | > 100 µM (inactive) | > 100 µM (inactive) | > 100 µM (inactive) | – | > 100 µM (inactive) | > 100 µM (inactive) | > 100 µM (inactive) | > 100 µM (inactive) | > 100 µM (inactive) | – | > 100 µM (inactive) | > 100 µM (inactive) | – |
| O=C1CC2(CCNCC2)C(=O)N1N1CCCC1 | > 100 µM (inactive) | – | > 100 µM (inactive) | – | > 100 µM (inactive) | > 100 µM (inactive) | > 100 µM (inactive) | > 100 µM (inactive) | > 100 µM (inactive) | > 100 µM (inactive) | > 100 µM (inactive) | – | > 100 µM (inactive) | > 100 µM (inactive) | > 100 µM (inactive) | > 100 µM (inactive) | > 100 µM (inactive) | > 100 µM (inactive) | > 100 µM (inactive) | > 100 µM (inactive) |
| [N-]=[N+]=C(C(=O)C(=[N+]=[N-])C(=O)c1ccccc1)C(=O)c1ccccc1 | > 100 µM (inactive) | – | > 100 µM (inactive) | – | > 100 µM (inactive) | > 100 µM (inactive) | > 100 µM (inactive) | > 100 µM (inactive) | > 100 µM (inactive) | > 100 µM (inactive) | > 100 µM (inactive) | > 100 µM (inactive) | > 100 µM (inactive) | – | > 100 µM (inactive) | > 100 µM (inactive) | > 100 µM (inactive) | > 100 µM (inactive) | > 100 µM (inactive) | > 100 µM (inactive) |
| COc1c(C)n(CCO)ccc1=O | > 100 µM (inactive) | > 100 µM (inactive) | > 100 µM (inactive) | > 100 µM (inactive) | – | > 100 µM (inactive) | > 100 µM (inactive) | – | > 100 µM (inactive) | > 100 µM (inactive) | – | > 100 µM (inactive) | > 100 µM (inactive) | > 100 µM (inactive) | > 100 µM (inactive) | > 100 µM (inactive) | – | > 100 µM (inactive) | > 100 µM (inactive) | – |
| COc1ccc(N2C(=O)C3c4[nH]c5ccccc5c4C4CC(C)(C)CC(C)(C)C4C3C2=O)cc1 (stereo not drawn) | 12.9 µM (inactive) | 14.5 µM (inactive) | 42.5 µM (inactive) | 11.9 µM (inactive) | 22.9 µM (inactive) | 44.5 µM (inactive) | – | 13.8 µM (inactive) | – | 8.05 µM (inactive) | 12.6 µM (inactive) | 14.1 µM (inactive) | 23.7 µM (inactive) | 10.3 µM (inactive) | 14.4 µM (inactive) | 8.81 µM (inactive) | – | 31.8 µM (inactive) | 16 µM (inactive) | – |
| Cc1n[nH]c(=O)n1/N=C/c1ccco1 | > 100 µM (inactive) | > 100 µM (inactive) | – | – | – | > 100 µM (inactive) | – | > 100 µM (inactive) | > 100 µM (inactive) | > 100 µM (inactive) | > 100 µM (inactive) | > 100 µM (inactive) | > 100 µM (inactive) | – | > 100 µM (inactive) | > 100 µM (inactive) | > 100 µM (inactive) | > 100 µM (inactive) | > 100 µM (inactive) | > 100 µM (inactive) |
| CCOC(=O)COc1ccc(OCC(=O)OCC)c2c1C(=O)CCCC2=O | > 100 µM (inactive) | 0.281 µM (active) | > 100 µM (inactive) | > 100 µM (inactive) | 3.13 µM (inactive) | > 100 µM (inactive) | > 100 µM (inactive) | > 100 µM (inactive) | > 100 µM (inactive) | > 100 µM (inactive) | > 100 µM (inactive) | > 100 µM (inactive) | > 100 µM (inactive) | > 100 µM (inactive) | > 100 µM (inactive) | > 100 µM (inactive) | – | > 100 µM (inactive) | > 100 µM (inactive) | – |
| Cc1ccc(/C=C2\CN(C)CC3C(c4ccc(C)cc4)=C(C#N)C(=O)NC23)cc1 (stereo not drawn) | > 50 µM (inactive) | > 50 µM (inactive) | – | 29.3 µM (inactive) | > 50 µM (inactive) | > 50 µM (inactive) | > 50 µM (inactive) | > 50 µM (inactive) | > 50 µM (inactive) | > 50 µM (inactive) | – | > 50 µM (inactive) | > 50 µM (inactive) | – | > 50 µM (inactive) | > 50 µM (inactive) | > 50 µM (inactive) | > 50 µM (inactive) | > 50 µM (inactive) | > 50 µM (inactive) |
| COc1ccc2c(c1)N=C1CSC(c3cc([N+](=O)[O-])ccc3Cl)N1C2 (stereo not drawn) | 26.2 µM (inactive) | – | 22.5 µM (inactive) | 19.6 µM (inactive) | 34.5 µM (inactive) | 26 µM (inactive) | 33 µM (inactive) | 22.2 µM (inactive) | – | 30.5 µM (inactive) | 28.5 µM (inactive) | 17.2 µM (inactive) | 32.3 µM (inactive) | 26.5 µM (inactive) | 18.8 µM (inactive) | 30.1 µM (inactive) | 14.8 µM (inactive) | 17.4 µM (inactive) | 16.3 µM (inactive) | – |
| CC(C)C(=O)NC(=S)Nc1ccc([N+](=O)[O-])cc1C#N | > 100 µM (inactive) | > 100 µM (inactive) | > 100 µM (inactive) | > 100 µM (inactive) | > 100 µM (inactive) | > 100 µM (inactive) | > 100 µM (inactive) | > 100 µM (inactive) | > 100 µM (inactive) | > 100 µM (inactive) | > 100 µM (inactive) | > 100 µM (inactive) | > 100 µM (inactive) | > 100 µM (inactive) | > 100 µM (inactive) | 16.8 µM (inactive) | – | > 100 µM (inactive) | 22 µM (inactive) | – |
